Data as given in patent publication US11339130B1 (Blade Therapeutics, Inc., priority 2016, dated 2022).
Read-outs that look alike come from different tables or passages of the source.

What was measured:
[1] = biological target: T1, Human Calpain 9/NS1 (Homo sapiens, UniProt O14815); test: Calpain inhibition continuous fluorescence (FRET) assay, Human Calpain 9/NS1; format: biochemical; conditions: read-out: Human Calpain 9/NS1 IC50
T1 sequence (O14815 1-690): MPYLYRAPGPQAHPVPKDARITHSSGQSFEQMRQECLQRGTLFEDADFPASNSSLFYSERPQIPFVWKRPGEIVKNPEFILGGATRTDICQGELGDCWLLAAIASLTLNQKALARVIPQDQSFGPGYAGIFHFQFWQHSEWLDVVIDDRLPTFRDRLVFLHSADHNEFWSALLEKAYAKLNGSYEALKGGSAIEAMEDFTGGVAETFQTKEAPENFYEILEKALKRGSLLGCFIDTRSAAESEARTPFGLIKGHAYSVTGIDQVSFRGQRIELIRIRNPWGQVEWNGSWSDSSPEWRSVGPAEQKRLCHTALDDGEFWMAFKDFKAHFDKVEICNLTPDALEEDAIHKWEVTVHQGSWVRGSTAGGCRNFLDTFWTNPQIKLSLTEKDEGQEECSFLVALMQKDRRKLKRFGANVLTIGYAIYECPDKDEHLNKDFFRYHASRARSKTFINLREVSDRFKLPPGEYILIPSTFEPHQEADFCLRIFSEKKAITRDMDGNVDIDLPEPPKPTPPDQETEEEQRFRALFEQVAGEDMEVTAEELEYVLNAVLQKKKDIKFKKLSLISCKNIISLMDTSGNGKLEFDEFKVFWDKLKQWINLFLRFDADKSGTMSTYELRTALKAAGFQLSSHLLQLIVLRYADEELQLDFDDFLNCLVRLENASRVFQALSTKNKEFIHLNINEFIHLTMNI
T1 sequence (P04632 1-268 partner): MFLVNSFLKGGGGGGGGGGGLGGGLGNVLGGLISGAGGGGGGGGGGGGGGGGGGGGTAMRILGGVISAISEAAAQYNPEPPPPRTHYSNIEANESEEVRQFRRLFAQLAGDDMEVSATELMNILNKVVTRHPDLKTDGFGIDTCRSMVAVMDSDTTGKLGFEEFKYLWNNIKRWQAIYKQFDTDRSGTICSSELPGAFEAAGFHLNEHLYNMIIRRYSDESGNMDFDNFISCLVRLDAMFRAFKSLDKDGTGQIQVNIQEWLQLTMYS
Method in brief: (§1)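 Fluorescence increase from the cleaved 5-FAM/QXL 520 substrate, read at 490/520 nm, gave activity. Calcium was supplied with the substrate to activate the enzyme in situ after a 25C enzyme-inhibitor preincubation, and IC50s were fit from initial slopes.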

[2] = system: Calpain activity in SH-SY5Y cells; test: SH-SY5Y + AMC fluorescence assay (Suc-LLVY-AMC substrate); format: cell-based; conditions: read-out: SH-SY5Y + AMC IC50
[3] = biological target: T2, Human Calpain 2/NS1 (Homo sapiens, UniProt P17655); test: Calpain inhibition continuous fluorescence (FRET) assay, Human Calpain 2/NS1; format: biochemical; conditions: read-out: Human Calpain 2/NS1 IC50
T2 sequence (P17655 1-700): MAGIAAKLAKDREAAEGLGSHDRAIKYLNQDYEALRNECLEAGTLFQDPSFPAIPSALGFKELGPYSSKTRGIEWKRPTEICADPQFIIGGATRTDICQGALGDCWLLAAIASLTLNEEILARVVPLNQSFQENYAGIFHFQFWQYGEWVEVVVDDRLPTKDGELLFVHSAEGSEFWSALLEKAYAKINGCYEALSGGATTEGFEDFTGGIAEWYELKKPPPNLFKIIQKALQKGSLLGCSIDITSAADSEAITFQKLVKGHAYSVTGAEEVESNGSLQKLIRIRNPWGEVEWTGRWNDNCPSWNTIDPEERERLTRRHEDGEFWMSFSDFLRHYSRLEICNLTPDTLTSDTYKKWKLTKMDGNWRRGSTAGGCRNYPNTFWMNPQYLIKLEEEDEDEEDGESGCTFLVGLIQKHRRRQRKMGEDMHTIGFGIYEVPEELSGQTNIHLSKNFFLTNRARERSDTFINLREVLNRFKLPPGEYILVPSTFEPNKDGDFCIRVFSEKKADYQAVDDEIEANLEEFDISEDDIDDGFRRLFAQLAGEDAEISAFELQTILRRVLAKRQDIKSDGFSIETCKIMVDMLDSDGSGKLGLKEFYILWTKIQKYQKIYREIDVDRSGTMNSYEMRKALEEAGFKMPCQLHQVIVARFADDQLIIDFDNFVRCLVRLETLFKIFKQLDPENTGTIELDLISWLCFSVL
T2 sequence (P04632 1-268 partner): T1 sequence (P04632 1-268 partner)
Method in brief: as §1

[4] = biological target: T3, Human Calpain 1/NS1 (Homo sapiens, UniProt P07384); test: Calpain inhibition continuous fluorescence (FRET) assay, Human Calpain 1/NS1; format: biochemical; conditions: read-out: Human Calpain 1/NS1 IC50
T3 sequence (P07384 1-714): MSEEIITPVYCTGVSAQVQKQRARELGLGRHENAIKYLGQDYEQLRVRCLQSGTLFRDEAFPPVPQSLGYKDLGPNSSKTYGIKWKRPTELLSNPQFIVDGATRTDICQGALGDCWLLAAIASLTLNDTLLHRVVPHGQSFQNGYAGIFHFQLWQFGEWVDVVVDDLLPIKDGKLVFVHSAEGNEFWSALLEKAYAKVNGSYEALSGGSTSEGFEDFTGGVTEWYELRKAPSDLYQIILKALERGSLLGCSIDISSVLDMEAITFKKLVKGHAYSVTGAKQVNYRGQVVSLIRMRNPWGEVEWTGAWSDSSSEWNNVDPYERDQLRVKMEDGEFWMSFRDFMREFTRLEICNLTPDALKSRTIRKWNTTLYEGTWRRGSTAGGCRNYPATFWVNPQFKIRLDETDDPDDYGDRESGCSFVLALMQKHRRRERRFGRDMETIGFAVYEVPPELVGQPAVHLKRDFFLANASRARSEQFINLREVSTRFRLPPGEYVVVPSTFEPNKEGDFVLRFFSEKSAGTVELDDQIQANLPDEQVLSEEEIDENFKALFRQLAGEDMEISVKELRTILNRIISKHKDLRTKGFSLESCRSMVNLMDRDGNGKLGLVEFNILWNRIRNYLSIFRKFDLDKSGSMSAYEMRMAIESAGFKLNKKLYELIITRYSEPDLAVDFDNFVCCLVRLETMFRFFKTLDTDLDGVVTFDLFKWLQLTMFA
T3 sequence (P04632 1-268 partner): T1 sequence (P04632 1-268 partner)
Method in brief: as §1

[5] = system: Calpain activity in SH-SY5Y cells (SBDP-150); test: SH-SY5Y Spectrin western blot assay (SBDP-150 breakdown product, A23187-induced); format: cell-based; conditions: Homo sapiens, SH-SY5Y cells, read-out: SH-SY5Y Spectrin IC50
[6] = Column D, A23187-induced SBDP-150
[7] = A23187-induced SBDP-150, western blot

Compound	IC50 ([1]; Column C) [µM]	IC50 ([2]; Column E) [µM]	IC50 ([3]; Column B) [µM]	IC50 ([4]; Column A) [µM]	IC50 [5, 6] [µM]	IC50 [1] [µM]	IC50 [2] [µM]	IC50 [3] [µM]	IC50 [4] [µM]	IC50 [5, 7] [µM]
Cc1cnn(-c2ccccc2)c1C(=O)N[C@@H](Cc1ccccc1)C(=O)C(N)=O [Compound 223, (S)—N-(4-amino-3,4-dioxo-1-phenylbutan-2-yl)-4-methyl-1-phenyl-1H-pyrazole-5-carboxamide]	< 3	> 25	< 3	< 3	10 to 25	–	–	–	–	–
Cc1cc(C(=O)N[C@@H](Cc2ccccc2)C(=O)C(N)=O)c(-c2ccccc2)s1 [Compound 222, (S)—N-(4-amino-3,4-dioxo-1-phenylbutan-2-yl)-5-methyl-2-phenylthiophene-3-carboxamide]	< 3	> 25	< 3	< 3	10 to 25	–	–	–	–	–
Cn1cc(C(=O)NC(Cc2ccccc2)C(=O)C(N)=O)c(-c2cnc3ccccc3c2)n1 (stereo not drawn) [Compound 605, N-(4-amino-3,4-dioxo-1-phenylbutan-2-yl)-1-methyl-3-(quinolin-3-yl)-1H-pyrazole-4-carboxamide]	–	–	–	–	–	< 3	> 25	< 3	< 3	> 25
Cc1nc(-c2ccccc2)c(C(=O)N[C@@H](Cc2ccccc2)C(=O)CF)o1 [Compound 475, (S)—N-(4-fluoro-3-oxo-1-phenylbutan-2-yl)-2-methyl-4-phenyloxazole-5-carboxamide]	–	–	–	–	–	3 to 10	> 25	< 3	3 to 10	< 10
Cn1cc(C(=O)NC(Cc2ccccc2)C(=O)C(N)=O)c(-c2ccnn2C)n1 (stereo not drawn) [Compound 568, N-(4-amino-3,4-dioxo-1-phenylbutan-2-yl)-1,2′-dimethyl-1H,2′H-[3,3′-bipyrazole]-4-carboxamide]	–	–	–	–	–	< 3	< 10	< 3	< 3	> 25
NC(=O)C(=O)C(Cc1ccccc1)NC(=O)c1cn(C(F)F)nc1-c1ccnc2ccccc12 (stereo not drawn) [Compound 596, N-(4-amino-3,4-dioxo-1-phenylbutan-2-yl)-1-(difluoromethyl)-3-(quinolin-4-yl)-1H-pyrazole-4-carboxamide]	–	–	–	–	–	< 3	< 10	< 3	< 3	10 to 25
NC(=O)C(=O)C(Cc1ccccc1)NC(=O)c1cn(-c2ccccc2F)nc1-c1ccccc1 (stereo not drawn) [Compound 527, N-(4-amino-3,4-dioxo-1-phenylbutan-2-yl)-1-(2-fluorophenyl)-3-phenyl-1H-pyrazole-4-carb oxamide]	–	–	–	–	–	< 3	< 10	< 3	< 3	> 25
Cc1cc(C(=O)NC(Cc2ccccc2)C(=O)C(=O)NC2CC2)n(-c2ncccn2)n1 (stereo not drawn) [Compound 455, N-(4-(cyclopropylamino)-3,4-dioxo-1-phenylbutan-2-yl)-3-methyl-1-(pyrimidin-2-yl)-1H-pyrazole-5-carboxamide]	–	–	–	–	–	> 10	< 10	< 3	3 to 10	> 25
Cn1cc(C(=O)NC(Cc2ccccc2)C(=O)C(N)=O)c(Cn2ncc3cnccc32)n1 (stereo not drawn) [Compound 408, 3-((1H-pyrazolo[4,3-c]pyridin-1-yl)methyl)-N-(4-amino-3,4-dioxo-1-phenylbutan-2-yl)-1-methyl-1H-pyrazole-4-carboxamide]	–	–	–	–	–	> 10	< 10	3 to 10	> 10	10 to 25
Cn1cc(C(=O)NC(Cc2ccccc2)C(=O)C(N)=O)c(-c2ccsc2Cl)n1 (stereo not drawn) [Compound 501, N-(4-amino-3,4-dioxo-1-phenylbutan-2-yl)-3-(2-chlorothiophen-3-yl)-1-methyl-1H-pyrazole-4-carboxamide]	–	–	–	–	–	< 3	< 10	< 3	< 3	10 to 25
Cn1cc(C(=O)NC(Cc2ccccc2)C(=O)C(N)=O)c(-c2ccc3ccccc3c2)n1 (stereo not drawn) [Compound 571, N-(4-amino-3,4-dioxo-1-phenylbutan-2-yl)-1-methyl-3-(naphthalen-2-yl)-1H-pyrazole-4-carboxamide]	–	–	–	–	–	< 3	> 25	< 3	< 3	> 25
Cc1noc(-c2ccccc2)c1C(=O)N[C@@H](Cc1ccc(F)cc1)C(=O)C(N)=O [Compound 58]	< 3	> 25	< 3	< 3	10 to 25	–	–	–	–	–
CCc1cccc(-c2nn(C)cc2C(=O)N[C@@H](Cc2ccccc2)C(=O)C(N)=O)c1 [Compound 182, (S)—N-(4-amino-3,4-dioxo-1-phenylbutan-2-yl)-3-(3-ethylphenyl)-1-methyl-1H-pyrazole-4-carboxamide]	< 3	< 10	< 3	< 3	10 to 25	–	–	–	–	–
NC(=O)C(=O)C(Cc1ccccc1)NC(=O)c1cn(C(F)F)nc1-c1cccc2c1OCO2 (stereo not drawn) [Compound 563, N-(4-amino-3,4-dioxo-1-phenylbutan-2-yl)-3-(benzo[d][1,3]dioxol-4-yl)-1-(difluoromethyl)-1H-pyrazole-4-carboxamide]	–	–	–	–	–	< 3	< 10	< 3	< 3	< 10
Cn1cc(C(=O)NC(CCc2ccccc2)C(=O)C(N)=O)c(-c2ccccc2)n1 (stereo not drawn) [Compound 417, N-(1-amino-1,2-dioxo-5-phenylpentan-3-yl)-1-methyl-3-phenyl-1H-pyrazole-4-carboxamide]	–	–	–	–	–	< 3	> 25	< 3	< 3	> 25
